This is an account of results in ChEMBL document CHEMBL1201862, “PubChem BioAssay data set” (2004).

Molecules are shown by their SMILES.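 These data come from cells grown in 96-well plates and exposed to compound for 48 hours at five concentrations. GI50: concentration for 50% inhibition of growth.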 Activity calls are given as the source filed them. Rule as the data show it: active = GI50 up to about 1.1 µM and inactive = higher. Starred links: 1 amine or outer side, 2 acyl side, 3 side chain; linkers in the order of their positions; H or OH if unused. Positions of bridges follow the written chain, without caps; N, C: chain ends. Non-standard residues stand in square brackets, D forms with d. Residues, ends and D or L forms follow the SMILES beside them. Chains are numbered I, II in the order given. ξ: configuration not given here. X42 = N=C(N)NCCC[C@H](NC(=N)CCCCCCC(=N)N[C@@H](CCCNC(=N)N)C(=O)[*:2])C(=O)[*:1]; Oic(3aξ,7aξ) = O=C(O)[C@@H]1CC2CCCCC2N1; Igl = N[C@H](C(=O)O)C1Cc2ccccc2C1; Hyp = O=C(O)[C@@H]1C[C@@H](O)CN1

Assay in all cases: inhibition of tumour cell growth, NCI panel, 48 h
Test [1] has as its system CAKI-1.
For test [2], the system named is SK-MEL-5.
Test [3] relates to SN12C.
In test [4] the test system is T47D.
For test [5], the system named is MDA-MB-435.
For test [6], the system named is CCRF-CEM.
Test [7] concerns 786-0.
Test [8] has as its system HCT-15.
For test [9], the system named is OVCAR-5.
Test [10] concerns SF-539.
The subject of test [11] is IGROV-1.
In test [12] the test system is NCI-H522.
For test [13], the system named is NCI/ADR-RES.
The test system of test [14] is OVCAR-8.
Test [15] relates to UACC-62.
The subject of test [16] is COLO 205.
In test [17] the test system is RPMI-8226.
For test [18], the system named is LOX IMVI.
For test [19], the system named is TK-10.
In test [20] the test system is SNB-19.

For the molecule `CCC(=O)NI1OC(=O)c2ccccc21`, the GI50 in test [1] was 21.6 µM (inactive); in test [2] it was > 100 µM (inactive); in test [3], > 100 µM (inactive); in test [4], > 100 µM (inactive); in test [5] it was > 100 µM (inactive); in test [6], 40.9 µM (inactive). The GI50 is > 100 µM (inactive) in test [7]; 43.5 µM in test [8]; > 100 µM (inactive) in test [9]; > 100 µM (inactive) in [10]; > 100 µM (inactive) in [11]; 15.9 µM (inactive) in [12]. Moreover, the GI50 was > 100 µM (inactive) in [13]; > 100 µM (inactive) in [14]; > 100 µM (inactive) in test [15]; > 100 µM (inactive) in [16]; 45.9 µM (inactive) in test [17]; > 100 µM (inactive) in test [18]. The GI50 in test [19] was > 100 µM (inactive).

Take `COc1cc(/C=N\O)cc(/C=N/O)c1O`: the GI50 in test [1] was 28.6 µM (inactive); in test [2] it was 40 µM (inactive); in test [3] it was 31 µM (inactive); in test [4], 26.4 µM (inactive); in test [5] it was 40 µM (inactive); in test [6], 12.1 µM (inactive). The GI50 in test [20] was 47.6 µM (inactive); in [8], greater than 100 µM; in [9], 44.3 µM (inactive); in test [10], 24.4 µM (inactive); in [11], > 100 µM (inactive); in [12] it was 75.9 µM (inactive). For the same molecule, the GI50 was 58.1 µM (inactive) in test [13]; 37.1 µM (inactive) in [14]; 68.1 µM (inactive) in test [15]; 22.5 µM (inactive) in [16]; 15.5 µM (inactive) in [17]; 40.9 µM (inactive) in [18]. For the same molecule, the GI50 in test [19] is > 100 µM (inactive).

As to `Nc1c(-c2ccccc2)c2ccc([N+](=O)[O-])cc2c(=O)n1-c1cccc(C(=O)O)c1`, the GI50 in [1] is > 100 µM (inactive); in [2], > 100 µM (inactive); in test [4], > 100 µM (inactive); in [5], > 100 µM (inactive); in test [6], 94.6 µM (inactive); in [20], > 100 µM (inactive). Besides, the GI50 in test [7] was > 10 µM (inactive); in [8] it was greater than 100 µM; in test [9], > 100 µM (inactive); in [10], > 100 µM (inactive); in [11], > 100 µM (inactive); in test [12] it was > 100 µM (inactive). In addition, the GI50 in test [13], in test [14], in test [15], in test [17], in test [18] and in test [19] was > 100 µM (inactive) each time.

As to `CCCSc1ccc2[nH]c(N3C(=O)/C(=C/c4ccccc4)N=C3c3ccccc3)cc2c1`, the GI50 in test [1] was 27.2 µM (inactive); in test [2] it was 14.2 µM (inactive); in test [3] it was 30.9 µM (inactive); in test [4], 22.8 µM (inactive); in test [5], 8.3 µM (inactive); in test [6], 18.4 µM (inactive). The GI50 in test [20] is 41.4 µM (inactive); in test [7], 23.3 µM (inactive); in [8], 19.2 µM; in test [9] it was > 50 µM (inactive); in [10], 18.1 µM (inactive); in test [11], 31.9 µM (inactive). Besides, the GI50 was 12.1 µM (inactive) in [12]; 16.9 µM (inactive) in test [13]; 19.5 µM (inactive) in [14]; 21.5 µM (inactive) in test [15]; 10.5 µM (inactive) in test [16]; 12.4 µM (inactive) in test [17]. Moreover, the GI50 in [18] is 20.4 µM (inactive).

As to `CCNc1ncnc2nn[nH]c12`, the GI50 in [1], in test [2], in test [3], in test [4], in test [5] and in test [6] was > 100 µM (inactive) each time. The GI50 in test [20] was > 100 µM (inactive); in test [7], > 100 µM (inactive); in test [8], greater than 100 µM; in [10] it was > 100 µM (inactive); in test [11], > 100 µM (inactive); in [12], > 100 µM (inactive). The GI50 in test [13], in [14], in [15], in test [16], in test [17] and in test [18] was > 100 µM (inactive) throughout. The GI50 in test [19] was > 100 µM (inactive).

In the case of `CCC(=O)C(CCN1CCC(N2C(=O)C(CCC#N)c3ccccc32)CC1)(c1ccccc1)c1ccccc1` (stereo not drawn), the GI50 in test [1] is 21.9 µM (inactive); in test [2] it was 10.3 µM (inactive); in [3], 18 µM (inactive); in [4], 7.85 µM (inactive); in [5], 4.85 µM (inactive); in [20], 17.2 µM (inactive). For the same molecule, the GI50 in test [7] is 12.3 µM (inactive); in test [8], 13.1 µM; in [9], 22.3 µM (inactive); in [10] it was 18.3 µM (inactive); in test [11], 14.6 µM (inactive); in test [12], 12.7 µM (inactive). For the same molecule, the GI50 in test [13] was 11.5 µM (inactive); in test [14], 11.4 µM (inactive); in [15], 15.6 µM (inactive); in test [16] it was 8.97 µM (inactive); in test [17] it was 4.17 µM (inactive); in test [18] it was 12.8 µM (inactive). In test [19], the GI50 is 12.5 µM (inactive).

With `S=C(NN=C1NCCCCN1)Nc1ccc(Cl)cc1`, the GI50 in test [1] is < 0.01 µM (active); in test [2], 5.36 µM (inactive); in [4], 39.8 µM (inactive); in [5], 22.9 µM (inactive); in test [6], 4.48 µM (inactive); in test [20], 77.6 µM (inactive). For the same molecule, the GI50 in test [7] is 7.35 µM (inactive); in test [8], 6.4 µM; in test [9], 14.8 µM (inactive); in test [10], 28.2 µM (inactive); in test [11], 16 µM (inactive); in test [12] it was 12.9 µM (inactive). Besides, the GI50 in [13] was 23.4 µM (inactive); in [14], 10.3 µM (inactive); in [15], 4.52 µM (inactive); in test [16], 13.1 µM (inactive); in test [17] it was 7.83 µM (inactive); in test [18] it was 11.7 µM (inactive). The GI50 in test [19] is 27.3 µM (inactive).

Turning to `COc1ccc(/N=C2/C(=N/c3ccc(OC)cc3)N(c3ccccc3)C(=S)N2N=C=C2Sc3ccccc3N2C)cc1`, the GI50 in test [1], in [2], in test [3], in [4], in [5] and in test [20] was > 100 µM (inactive) throughout. Further, the GI50 in [7] was > 100 µM (inactive); in [8] it was greater than 100 µM; in test [9], > 100 µM (inactive); in test [10], > 100 µM (inactive); in test [11], > 100 µM (inactive); in test [12] it was > 100 µM (inactive). Further, the GI50 in test [13] was > 100 µM (inactive); in test [14], > 100 µM (inactive); in [15], > 100 µM (inactive); in test [16] it was > 100 µM (inactive); in [17], > 100 µM (inactive); in [19], 32.1 µM (inactive).

With `O=C(OC1C=C=CS(=O)(=O)CC#C/C=C\1)c1cnc2ccccc2n1` (stereo not drawn), the GI50 was > 100 µM (inactive) in test [1]; 91.4 µM (inactive) in test [2]; > 100 µM (inactive) in [3]; > 100 µM (inactive) in [4]; > 100 µM (inactive) in test [5]; > 100 µM (inactive) in [6]. Moreover, the GI50 was > 100 µM (inactive) in [20]; 48.4 µM in test [8]; > 100 µM (inactive) in test [9]; > 100 µM (inactive) in test [10]; 79.6 µM (inactive) in [11]; 25.7 µM (inactive) in test [12]. Moreover, the GI50 was > 100 µM (inactive) in [13]; > 100 µM (inactive) in test [14]; 26.4 µM (inactive) in test [15]; 63.7 µM (inactive) in test [16]; 57 µM (inactive) in [17]; 29.8 µM (inactive) in [18]. For the same molecule, the GI50 in [19] was > 100 µM (inactive).

Take `N=C(N)NCCC[C@H](NC(=O)[C@@H]1CC2CCCCC2N1C(=O)[C@@H](NC(=O)[C@H](CO)NC(=O)[C@@H](NC(=O)CNC(=O)[C@@H]1CCCN1C(=O)[C@H](CCCNC(=N)N)NC(=O)[C@H](CCCNC(=N)N)NC(=N)CCCCCCC(=N)N[C@@H](CCCNC(=N)N)C(=O)N[C@@H](CCCNC(=N)N)C(=O)N1CCC[C@H]1C(=O)N1C[C@H](O)C[C@H]1C(=O)NCC(=O)N[C@H](C(=O)N[C@@H](CO)C(=O)N[C@H](C(=O)N1C2CCCCC2C[C@H]1C(=O)N[C@@H](CCCNC(=N)N)C(=O)O)C1Cc2ccccc2C1)C1Cc2ccccc2C1)C1Cc2ccccc2C1)C1Cc2ccccc2C1)C(=O)O` (stereo partly drawn) (I: RP[Hyp]G[Igl]S[Igl][Oic(3aξ,7aξ)]R-OH / II: RPG[Igl]S[Igl][Oic(3aξ,7aξ)]R-OH; linker I:N-II:N via X42): the GI50 in [1] is 2.1 µM (inactive); in [2], 1.73 µM (inactive); in test [3], 2.07 µM (inactive); in test [4], 2.19 µM (inactive); in test [5], 1.99 µM (inactive); in test [6], 3.11 µM (inactive). Besides, the GI50 in test [20] was 2.36 µM (inactive); in test [7] it was 2.99 µM (inactive); in [8] it was 2.22 µM; in [9], 3.48 µM (inactive); in [10], 2.36 µM (inactive); in [11], 2.44 µM (inactive). The GI50 in test [12] is 5.89 µM (inactive); in test [13], 2.9 µM (inactive); in [15], 1.83 µM (inactive); in test [16] it was 1.69 µM (inactive); in test [17], 2.31 µM (inactive); in test [18], 2.24 µM (inactive). For the same molecule, the GI50 in [19] is 2.76 µM (inactive).
